Patent publication US6177592A, “Compounds” (priority 1997, dated 2001)

Columns and labels:
[1] = Blood sugar, insulin and lipid in KK-Ay mice; type: in vivo, mouse (KK-A^y)
Protocol: KK-A^y Mice (male; four weeks age) were purchased from Clea Japan and, after breeding at our end until ten weeks age, GM was orally administered for 21 days and its influence on sugar, insulin and lipid in blood was investigated. Doses of GM were 30, 100 and 300 mg/kg.
Incidentally, the animals were grouped into four (each group consisting of ten animals) and the four groups were administered with physiological saline solution (5 ml/kg) or 30, 100 or 300 mg/5 ml/kg of GM. Each test substance was orally administered once daily for 21 days and, on the final day of administration, the animals were anesthetized with ether after four hours from the administration of the test substance and blood was collected from artery of lower abdomen. Insulin in serum was measured by an enzyme-immunoassay (commercially available kit: Glazym Insulin-EIATEST,manufactured by Wako Pure Chemicals). Sugar, triglycerides and free fatty acids in serum were measured using an automatic analyzer (type 7070, manufactured by Hitachi) by a hexonase-G6PDH method, a GPO.cndot.DAOS method and an ACS.cndot.ACOD method, respectively. Total cholesterol in serum was measured using an automatic analyzer (type 7070, manufactured by Hitachi) by a cholesterol-oxidase, DAOS method.

[2] = test system: carrageenan-induced pedal edema; assay: Carrageenan-induced pedal edema in Lewis rats; type: in vivo; settings: Rattus norvegicus, 3 h; oral; three hours after carrageenan; read-out: dose with significant inhibition of pedal edema
Protocol: Carrageenan-induced pedal edema models which were animal model of chronic articular rheumatism were prepared as follows using male Lewis rats [purchased from Seac-Yoshitomi when five weeks age (body weight: about 130 g) followed by subjecting to a preliminary breeding for one week at our end] and the test drugs were evaluated.
To the rats which were fasted since 18 hours before initiation of the experiment was orally administered with 10 ml/kg of GM which was prepared with distilled water (manufactured by Otsuka Pharmaceutical) to make 10 and 100 mg/ml.
After 0.5 hour from administration of the test drug, 100 μl/rat of 1% suspension of carrageenan (manufactured by Wako) in a physiologically saline solution (manufactured by Otsuka Pharmaceutical) was injected to right paw to induce pedal edema. After three hours from the carrageenan injection, volume of right paw of the rat was measured by a pedal volume measuring device (manufactured by UGO BASILE). Incidentally, the measured value was expressed by calculating the increasing rate from the right paw volume of each rat measured before the carrageenan administration.

RAW264.7 cells = assay: Inhibition of LPS-caused cell damage in RAW264.7; type: cell-based, mouse; settings: RAW 264.7
Protocol: Inhibition activity of GM to NO production and to cell damage was measured as follows using mouse macrophage cell strain RAW264.7 cells (ATCC TIB 71) and LPS.
Dulbecco-modified Eagle's medium (manufactured by Life Technologies Oriental; 11054-020) containing 2 mM of L-glutamine (manufactured by Life Technologies Oriental; 25030-149) containing no Phenol Red containing 5 ml of 10% fetal calf serum (manufactured by Gibco) containing 1.5×10^6 cells of RAW 264.7 was incubated in a six-well tissue culture plate in the presence of 5% carbon dioxide gas at 37° C. for 12 hours, 50μl of 50μg/ml LPS (manufactured by Sigma; L-2012) was added, then each 50 μl of 250 )i M Mn or 100 μH GM was added to each well, incubation was further continued for additional 12 hours and, after that, NO2^- produced by oxidation of NO in the medium and amount of viable cell numbers were measured. Incidentally, a sect-Lon where no LPS was added and a section where no GM was added were prepared as controls.

[3] = test system: CEM-3B cells (CEM-SS cells infected with HIV-1IIIB); assay: Survival rate of HIV-1IIIB-infected CEM-SS cells (CEM-3B); type: cell-based; settings: for survival rate of cells: one day
Protocol: GM (0, 4, 8 or 16 μM) was added to 2×10^5 cell/ml of CEM-SS cells (ATCC CCL-119) and to CEM-SS cells infected with HIV-1IIIB (wherein not less than 90% of the CEM-SS cells were infected with the HIV-1IIIB; hereinafter, referred to as CEM-3B) incubation was conducted for one day, viable cell numbers and dead cell numbers were counted and survival cell rate was calculated.

NIH 3T3/E7-2 = assay: Colony formation of HPV16 E7-transformed NIH 3T3/E7-2 cells; type: cell-based
Protocol: (1) Transformation to Escherichia coli HB101 was conducted by control plasmid pcD2-Y expressing G418-resisting gene [Mol. Cell. Biol., volume 7, pages 2745-2752 (1987)] and plasmid pcD2-16E7 which was capable of expressing both HPV 16 type E7 and G418-resisting gene [Jpn. J. Cancer Res., volume 82, pages 1340-1343 (1991)], then incubation was conducted in an L-broth medium and plasmid was extracted from the collected cells and purified by a cesium chloride density gradient ultracentrifugation to give vector plasmid for introduction of gene.
The purified plasmid (10 μg) was introduced into NIH 3T3 cells using a cationic liposome (TransIT LT-1, manufactured by Takara Shuzo), the cells were selected at 37° C. under the condition of 5% CO2 for two weeks in a Dulbecco-modified Eagle's medium containing 10% calf serum which contained 0.4 mg/ml of G418 (Gibco) and the resulting colonies were cloned to establish each nine strains of NIH 3T3 cells into which control vector was introdcd and NIH 3T3 cells which was cancerated with HPV 16 type E7.
The cells strains into which E7 was introduced were named NIH 3T3/E7-1, NIH 3T3/E7-2, NIH 3T3/E7-3, NIH 3T3/E7-4, NIH 3T3/E7-5, NIH 3T3/E7-6, NIH 3T3/E7-7, NIH 3T3/E7-8 and NIH 3T3/E7-9. […]
A part of the suspension was taken out and cell density was counted by a Neubauer's hemocytometer. […]

[4] = 30, 100, 300 mg/kg oral, 21 days

SMILES	triglycerides in serum [1, 4]	minimal effective dose [2] [mg/kg]	inhibition of cell damage caused by LPS (RAW264.7 cells)	blood sugar [1, 4]	free fatty acids in serum [1, 4]	insulin in serum [1, 4]	total cholesterol in serum [1, 4]	effect of lowering blood sugar, insulin and lipid ([1]; Example 13, summary)	survival rate of cells ([3]; 16 μM, compared with CEM-SS)	survival rate of cells ([3]; 4 or 8 μM)	selective cytocidal effect to HIV-infected cells, antiviral action to HIV ([3]; Example 15)	sensitivity of E7-introduced cells compared with control cells (in words) (NIH 3T3/E7-2; 5 μM)	Numbers of Colonies (Mean Value ± SD) (NIH 3T3/E7-2; 5 μM GM, nine days, control 67.3 ± 3.2)
N[C@@H](CSC1C=C(O)C(=O)C1)C(=O)O (stereo partly shown) [CM]	decreased	–	–	–	–	–	–	–	–	–	–	–	–
N[C@@H](CCC(=O)N[C@@H](CSC1C=C(O)C(=O)C1)C(=O)NCC(=O)O)C(=O)O (stereo partly shown) [GM, 2-hydroxy-4-glutathion-S-yl-2-cyclopenten-1-one]	–	≥ 100	inhibited the cell damage in RAW 264.7 cells caused by LPS	decreased in each of the groups administered with GM	decreased	decreased in each of the groups administered with GM	de creased	effect of lowering blood sugar, insulin and lipid	decreased more significantly	the survival rate significantly decreased depending upon the concentration	selective cytocidal effect to HIV-infected cells	high sensitivity to GM as compared with the control cells	13.3 ± 3.2
